# Data published in patent publication US8039585B2, “Therapeutic administration of the scrambled anti-angiogenic peptide C16Y” (The United States of America as represented by the …, priority 2004, dated 2011).
# Like-named read-outs stand apart in the source and are kept apart here.
# Legend:
# HUVECs = assay: Endothelial cell tube-forming assay on Matrigel; format: cell-based, human; set-up: key to Disruption of tube formation / Activity (tube formation, truncated C16Y peptides): +: tubes slightly affected; ++: tubes moderately affected; +++: tubes disrupted; ++++: tubes completely disrupted; −: tubes resemble control; conditions: for Dose at which tube formation is disrupted (lowest active): 10-75 μg/ml tested; for Disruption of tube formation: 16 hours
# Method: FIG. 3: Disruption of endothelial cell tube formation by C16Y peptide. 48-well plates were coated with 200 μl of Matrigel per well. Each well was treated with RPMI containing 24,000 human umbilical vein endothelial cells (HUVECS) and 100 mg/L endothelial cell growth factor in the presence of 10-75 μg/ml of C16 or scrambled C16 peptide for 16 hours. Control wells contained medium only. Cells were fixed and stained, and tube formation was scored by a blinded observer.
# Tube-forming assays were performed as described previously (Ponce 2001). 48-well plates were coated with 200 μl/well of Matrigel (Gho 2001; Kubota 1988), a basement membrane matrix. HUVECs (24,000 cells/well) were plated in RPMI 1640 containing 10% bovine calf serum, defined and supplemented (HyClone Laboratories, Inc., Logan, Utah), along with 100 mg/liter of endothelial cell growth factor (Collaborative Biomedical). C16 or scrambled C16 peptides were added at concentrations ranging from 10-75 μg/ml. Control wells contained medium only. After 16 hours, cells were fixed and stained with Diff-Quick fixative (methanol) and solution II (6.25% (w/v) each of azure A and methylene blue) (Dade A G, Dudingen, Switzerland), and tube formation was scored by a blinded observer. Each peptide was tested at least in triplicate, and the assays were repeated a minimum of three times.
# Tube formation assays were repeated using truncated versions of the C16Y peptide to determine the minimal active sequence of the peptide. The carboxyl end of C16Y was not necessary for activity, whereas the amino terminal aspartic acid was required. The minimal active sequence for the C16Y peptide is shown in SEQ ID NO: 2. Each of the peptides containing at least this 8 amino acid sequence (SEQ ID NOs: 1-5) inhibited tube formation.
# [1] = tested on: C16-induced angiogenesis in the chick CAM; assay: CAM assay, C16-induced angiogenesis; format: in vivo; conditions: for Angiogenesis with peptide administered alone: peptide alone (C16: 0.5 μg)
# Method: FIG. 4: Inhibition of C16-induced angiogenesis by C16Y. 0.5 μg of angiogenic stimulator (C16 peptide) and varying concentrations of either C16S or C16Y peptides were applied to 10-day-old embryonated eggs in 5 μl of water. After 3 days, microphotographs were taken of the eggs to determine angiogenesis levels. Negative control eggs were treated with water only (panel a), while positive control eggs were treated with bFGF only (not shown). As expected, C16 peptide administered alone stimulated angiogenesis (panel d). […] When the amount of inhibitor peptide was lowered to 0.05 μg, C16Y peptide continued to inhibit angiogenesis (panel f), while C16S peptide had no effect (panel c).
# The CAM assay was performed using 10-day-old embryonated eggs (CBT, Charlestown, Md.) as described previously (Gho 1999). On embryonal day 3, approximately 4 ml of ovalbumin was removed from each egg. After opening windows on embryonal day 10, the angiogenic stimulus (C16) and test competitor peptides in 5 μl of distilled water were applied to the CAM after drying on 13-mm diameter quartered plastic coverslips (Thermanox; Nalge, NUNC International, Naperville, Ill.). Three days later, the eggs were scored for a positive response and photographed. The positive control was bFGF, and the negative control was the vehicle water. Experiments were repeated twice using a minimum of 11 eggs for each data point.
# [2] = tested on: bFGF-induced angiogenesis; assay: CAM assay, bFGF-induced angiogenesis; format: in vivo, chick; conditions: 50 ng bFGF + 0.05 μg peptide
# Method: FIG. 5: Inhibition of bFGF-induced angiogenesis by C16Y. 50 ng of angiogenic stimulator (bFGF) and varying concentrations of either C16S or C16Y peptides were applied to 10-day old embryonated eggs in 5 μl of water, and CAMs were analyzed for the presence or absence of angiogenesis.
# 50 ng of angiogenic stimulator (bFGF) and varying concentrations of either C16S or C16Y peptides were applied to 10-day old embryonated eggs in 5 μl of water, and CAMs were analyzed after 3 days for the presence or absence of angiogenesis.
# [3] = tested on: MDA-MB 231 breast cancer cells; assay: Primary tumor growth in nude mice (s.c. MDA-MB 231); format: in vivo; conditions: 1 mg/day i.p.
# Method: FIG. 7: Inhibition of primary tumor growth by C16Y. MDA-MB 231 cancer cells were injected subcutaneously (s.c.) into nude mice and the tumors were allowed to grow until they reached 200-300 mm^3. Mice were then treated daily for 7-10 days with C16 (1 mg/day) or C16Y peptides (0.2, 0.5, or 1 mg/day) by intraperitoneal (i.p.) injection. Control mice were injected with water only. Tumor size was measured at 0, 3, 6, and 9 days after peptide injections began. A. Mice were treated with 1 mg/day of either C16 or C16Y peptide for 10 days. […] B. Mice were treated with C16Y peptide at varying concentrations for 7 days. C16Y decreased tumor size at all concentrations tested during the 7 days it was administered. Tumor growth resumed when administration of the C16Y peptide was halted, with tumor size increasing more rapidly in mice treated with lower dosages of C16Y. Bars represent ±SD.
# MDA-MB 231 breast cancer cells (5×10^5 cells) mixed with Matrigel (1:4) were injected subcutaneously (s.c.) into nude mice. […] Tumor growth was monitored with a caliper, with measurements being taken on days 0, 3, 6, and 9 after the first peptide injection. Tumor volume was determined using the formula width^2×length×0.52. […] Vessel number was determined by staining sections with a CD-31 antibody (Nomizu 2001) and counting 6 fields per section per mouse (n=2 section/mouse; total 3 mice).
# [4] = tested on: MDA-MB 231 breast tumor cells; format: in vivo, chick; conditions: for Average tumor weight: 7 day incubation
# Method: FIG. 6: Inhibition of CAM tumor growth by C16Y. MDA-MB 231 breast tumor cells were mixed with C16 or C16Y peptides (at either 50 or 100 μg/ml), then mixed with 1:1 with neutralized collagen I solution. The collagen I gel was overlayed with the CAM of a 7-day-old embryo for 7 days, after which the membrane was fixed and tumor cells were removed and weighed. In the absence of either peptide, average tumor weight was 5.40±0.59 mg. […] C16Y peptide inhibited tumor growth by approximately 40% at both concentrations tested. Bars represent ±SD.
# The effect of C16Y on tumor growth in vivo was analyzed using the CAM assay (Gho 2001). MDA-MB 231 breast tumor cells (a gift of Dan Welch, Pennsylvania State University, University Park, Pa.) (1×10^6 cells/0.1 ml) in RPMI 1640 were mixed with 0, 50, or 100 μg/ml of C16 or C16Y, and then mixed 1:1 with a neutralized collagen I solution (4.6 mg/ml collagen type 1). This collagen I gel was overlayed with the CAM of a 7-day-old embryo. After a 7 day incubation, the membrane was fixed and tumor cells were removed and weighed. This experiment was repeated twice, with each data point tested in at least six replicates.
# MDA-MB 231 cells = assay: Tumor cell proliferation assay (Cell Titer 96 Aqueous); format: cell-based; conditions: 100 μg/ml, 2-72 hours
# Method: A proliferation assay was performed to determine whether the tumor inhibition discussed in Example 6 was the result of angiogenesis inhibition or some effect on cell proliferation. Proliferation of MDA-MB 231 cells was quantified using a Cell Titer 96 Aqueous Cell Proliferation assay kit (Promega, Madison, Wis.). Cells were plated on four 96-well dishes at 5×10^3 cells/well and cultured in AIM-V serum-free medium (Life Technologies, Inc., Gaithersburg, Md.). After 1 hour, peptides C16 and C16Y were added at a final concentration of 100 μg/ml. A separate dish was used to quantitate proliferation at 2, 24, 48, and 72 hours by reading absorbance at 490 nm on an Emax plate reader. Each experiment was repeated in triplicate two times.
Substance,Dose at which tube formation is disrupted (lowest active) (HUVECs),Disruption of tube formation (HUVECs; peptide concentration 10 μg/ml),Disruption of tube formation (HUVECs; peptide concentration 25 μg/ml),Disruption of tube formation (HUVECs; peptide concentration 50 μg/ml),Disruption of tube formation (HUVECs; peptide concentration 75 μg/ml),Inhibitory effect on angiogenesis ([1]; 0.5 μg C16 + 0.05 μg inhibitor peptide),Reduction in angiogenesis ([1]; 0.5 μg C16 + 0.1 μg inhibitor peptide),Reduction in angiogenesis ([1]; 0.5 μg C16 + 0.2 μg inhibitor peptide),Angiogenesis with peptide administered alone [1],Inhibition of angiogenesis [2],"Tumor size relative to original size ([3]; 7 days, stated jointly with control mice)",Tumor growth ([3]; after 7 days),Average tumor weight ([4]; 50 μg/ml peptide),Average tumor weight ([4]; 100 μg/ml peptide),Vessels observed in tumors ([4]; P≦0.027),Effect on MDA-MB 231 cell proliferation (MDA-MB 231 cells)
"C16S: scrambled peptide of C16, created as a negative control, with antagonist activity (KAFDITYVRLKF; Scrambled version of C16 peptide) [Peptide C16S, reference compound]",50 µg/mL,−,−,+++,+++,no longer generated an inhibitory effect,52%,63%,"neither C16Y (FIG. 4, panel e) nor C16S (data not shown) administered alone stimulated angiogenesis",no ability to inhibit angiogenesis,,,,,,
"KAFDITYVRLKF [Peptide C16, angiogenic peptide from the γ1 chain of laminin-1]",50 µg/mL,−,−,+,+++,,,,capable of inducing angiogenesis,,1.7-2.5 times their original size,did not significantly affect tumor growth,5.45 ± 0.84 mg,5.85 ± 0.54 mg,9.6±0.23,Neither C16 nor C16Y altered MDA-MB 231 cell proliferation
